Data from US7323318B2, “Assay for distinguishing live and dead cells” (priority 2004, dated 2008).

Key:
population of cells = experiment: Image-based live-dead cell assay using mean tubulin marker (DM1-α) intensity per cell
Description: FIG. 1 presents two images of cells: a left image of a control population of cells treated with DMSO, and a right image of a test population of cells treated with the compound carbonyl cyanide 3-chlorophenylhydrazone (herein CCCP), a poison which acts on the cellular respiratory pathway. After treatment with DMSO or CCCP, the cells were fixed and stained with multiple markers. Three of these markers are shown in the image: red indicates DNA, blue indicates tubulin, and green indicates the trans-Golgi network. […] Note that individual cells are identified (whether alive or dead) by a small red area in the central region. This red area is associated with DNA in the cell nucleus. […] This is not necessarily an indication that the dead cells have increased levels of Golgi.
FIG. 2 presents a flowchart depicting one method for producing a model that can be used to determine whether an individual cell is live or dead. As shown in a block 203, the method begins by preparing the cell populations that are to be used for imaging. In certain embodiments, a sandwich culture is employed. In this preliminary operation, some cell populations are treated as controls (assumed to have a high fraction of cells that are alive) and other cell populations are treated as test samples (assumed to have a significant fraction of cells that are dead). Upon completion of treatment, cells are fixed and stained with appropriate markers. The test cells will all have been treated with a compound or other stimulus known to kill a significant percentage of the cells in a given population. Together, the control and test cell populations provide relatively large numbers of live and dead cells. The size of these populations should be large enough to provide a training set sufficient to generate a model that can reliably distinguish live cells from dead cells.
An exemplary two-step segmentation process is illustrated in FIGS. 3A and 3B. FIG. 3A presents the result of the first step. As shown there, two images (the left one for a control population treated with DMSO and the right one for a test population treated with 2.5 μM CCCP) show nuclei circled in the interiors of individual cells. Cellular DNA was stained with Hoechst […], which emits fluorescence at a wavelength selectively collected in the FIG. 3A image to permit identification of the individual nuclei. Each such nucleus is presumed to belong to a separate cell.
FIG. 3B presents the results of the second step of the cell segmentation procedure. As shown, the cell populations of FIG. 3A are again presented, but this time at the Alexa 647 channel (i.e., the bright regions in the image locate the source of radiation emitted at the wavelength of Alexa 647). […] The cell boundaries so identified are circled within the images. Each cell boundary defines a collection of pixels that are deemed to belong to a particular cell. For image processing those pixels are used extracting information about the particular cell in question.
After the boundaries of each cell have been identified, the appropriate live-dead indicator feature can be extracted on a cell-by-cell basis. See block 209. As indicated above, the intensity of a marker for tubulin (an indicator of local tubulin concentration within the cell) can be identified for each pixel in a given cell. Each cell will be characterized on the basis of its level of tubulin, whether based on an average value over all pixels in the cell, a maximum or minimum value within the cell, or some other indicator of tubulin quantity. In a preferred embodiment, the mean tubulin marker intensity is calculated over the pixels in a cell and the resulting value is employed as the live-dead indicator feature.
Additional images are presented in FIG. 3C, highlighting the marker DM1-α for tubulin. […] Note that live and dead cells can be usually distinguished by visual inspection. […]

[1] = tested on: live cells and dead cells; experiment: Total cell area in live and dead cells (pixel count within segmented boundary); type: cell-based; details: FIG. 6B
Protocol: The area was determined from a pixel count within the boundary determined by segmentation. […] A simple consideration of the average cell area for all cells (including live cells and dead cells) would likely mask the fact that the higher concentrations of the drug cause dead cells to become progressively larger. The effect of the live cells masks, somewhat, the effect on the dead cells. […] Note that the average area of the live and dead cells together is shown as lines 611 in FIG. 6B. Note also that, as with the plot in FIG. 6A, the live cells were discriminated from dead cells using the mean DM1-α intensity of each cell.

[2] = tested on: TGN (trans-Golgi network); details: FIG. 6C; increasing concentrations
Description: As with FIGS. 6A and 6B, the live-dead discrimination in FIG. 6C was made using mean DM1-α intensity (per cell).

Which “number of cells with significant tubulin concentration versus DMSO control” value (population of cells; FIG. 1, fixed and stained cells, tubulin marker (blue)) does the source give for `N#CC(C#N)=NNc1cccc(Cl)c1` [CCCP, carbonyl cyanide 3-chlorophenylhydrazone] here?
Its value is “far fewer cells with significant tubulin concentration”.

What about the “percentage of dead cells versus DMSO control population” value (population of cells; FIG. 3C, 2.5 μM CCCP, DM1-α tubulin channel) of the same compound?
Its value is “far higher percentage of dead cells”.

And the “mean tubulin marker intensity per cell (histogram) versus control cells” value (population of cells; FIG. 4B, 0.625 μM to 5 μM CCCP for 24 hours, test cells pooled with control cells)?
Its value is “a relatively large fraction of the cells have a mean tubulin marker intensity well below that associated with the control cells”.

And the “concentration at which the number of live cells begins to decrease” value (population of cells; FIG. 6A, normalized concentration, decrease at roughly the same rate as the dead cell increase)?
Its value is “about 0.5 μM”.

What about the “concentration at which the number of dead cells begins to increase dramatically” value (population of cells; FIG. 6A, normalized concentration, live/dead discriminated by mean DM1-α intensity, samples of around 800 cells) of the same compound?
The value was “about 0.5 μM”.

And the “total number of cells (number of objects, DNA spots) across concentrations” value (population of cells; FIG. 6A, three samples of around 800 cells each)?
Its value is “remain approximately constant”.

With `O=C(O)Cc1ccccc1Nc1c(Cl)cccc1Cl` [diclofenac] as the compound, how does the “total area of the live cells” value ([1]; beginning at approximately the same concentration (arbitrary 100)) read?
The value was “gradually decreased”.

What about the “area of the dead cells” value ([1]; from the arbitrary concentration of 100 in the plot) of the same compound?
Its value is “begins to increase rather dramatically”.

Which results are given for `Nc1c2c(nc3ccccc13)CCCC2` [tacrine]?
Golgi (TGN) marker intensity signal in dead cells [2]: relatively minimal affect; mean Golgi (TGN) marker intensity signal in live cells [2]: dramatically increase
